Assay results taken from US8993626B2, “Methods of treatment using sterculic acid” (The United States of America, as represented by the …, priority 2010, dated 2015).

What was measured:
[1] = test system: ARPE-19 cells; test: qRT-PCR of inflammatory cytokines and ER stress markers, 7KCh-mediated inflammation; format: cell-based
Method: FIGS. 13A-13D depict mRNA expressions of (A) VEGF, (B) IL-6, (C) GRP78, and (D) CHOP in response to 8 μM 7KCh with or without 1 μM long-chain fatty acids. Error bars indicate the standard deviations. *p<0.05 comparing to 7KCh, n=3. Two-tailed Student's t-test.
(§1) FIGS. 14A-14D depict mRNA expressions of (A) VEGF, (B) IL-1b, (C) IL-6, and (D) IL-8 in response to 8 μM 7KCh, 1 μM sterculic acid, 1 μM stearic acid, or the combinations of 7KCh with either sterculic acid or stearic acid. Error bars indicate the standard deviations. *p<0.05 comparing to 7KCh, n=4. Two-tailed Student's t-test.
as §1, with “15A-15D” for “14A-14D”, “TNF-α,” for “VEGF,”, “TGF-β1,” for “IL-1b,”, “GRP78,” for “IL-6,”, “CHOP” for “IL-8”, “n=3-4.” for “n=4.”
(§2) ARPE-19 cells were seeded in 24-well plates with 1×10^5 cells per well and allowed to recover for 16-24 hr. Once confluency reached approximately 90%, the effect of the fatty acids against 7KCh-mediated cell death was examined 24 hr after incubation in serum-free medium with 12 μM 7KCh. Fatty acids were tested at 0.1, 0.5, 1, 5 and 10 μM concentrations. The effects of the fatty acids against 7KCh-mediated inflammation and ER stress were examined by incubating cells in 1 μM fatty acids with either 8 μM 7KCh (24 hr for quantitative real-time PCR (qRT-PCR), 24 and 48 hr for immunoblot), or 6 μM 7KCh for 48 hr (for ELISA). Three individual experiments were performed for each treatment with quadruplicate measurements performed for each experiment in 24-well plates.
The RNA was extracted using RNeasy Mini Kit (Qiagen, Valencia, Calif.). The reverse transcription was performed with reagents and kits from Invitrogen. Quantification of mRNA expression was performed using the Taqman gene expression assays and the following primers (VEGFa, Hs00173626_m1; IL-1β, Hs01555413_m1; IL-6, Hs00174131_m1; IL-8, Hs00174103_m1; IκBα, Hs00153283_m1; GRP78, Hs99999174_m1; CHOP, Hs01090850_m1; NOX2, Hs00166163_m1; NOX4, Hs01558199_m1; SCD, Hs00748952 s1; TNF-α, Hs00174128_m1; TGF-β1, Hs00998133_m1; GAPD, 4352934e). GAPD expression was used as an endogenous standard. All qRT-PCR experiments were measured in triplicates in an ABI 7500 Real-Time PCR Instrument (Applied Biosystems, Foster City, Calif.). The results of each treatment were normalized and presented in percentage relative to the vehicle-only control.

[2] = test system: ARPE-19 cells; test: Fatty acids against 7KCh-mediated cell death (CCK8); format: cell-based
Method: FIGS. 12A-12C depict ARPE-19 cell viability in response to 12 μM 7KCh with or without 0.1-5 μM (A) sterculic acid and (B) stearic acid after 24 hr treatments. Error bars indicate the standard deviations. n=3-5. Two-tailed Student's t-test. (C) Representative images of changes in cell morphology in response to 12 μM 7KCh with or without 1 μM sterculic acid and stearic acid after 24 hr treatments.
as §2
The cell viability was determined by the dehydrogenase activity of the ARPE-19 cells using Cell Counting Kit-8 (CCK8, Dojindo, Gaithersburg, Md.) according to manufacturer's protocol.
The lowest effective concentrations of fatty acids that offset the 7KCh-mediated cell death were determined. […] Table 3 lists the lowest concentrations of these fatty acids required to maintain full cell viability against 12 μM 7KCh treatment. All unsaturated fatty acids protected against 7KCh-induced cell death. […] DHA, α-linolenic, and linoleic acid prevented 7KCh-mediated cell death at 5 μM but the rest of unsaturated fatty acids and dihydrosterculic acid required 10 μM to be protective.

[3] = test system: bFGF-induced angiogenesis; test: Chick chorioallantonic membrane (CAM) assay; format: in vivo; conditions: for decrease in blood vessels induced by bFGF: bFGF 5 ng/ml, 72 h
Method: Results shown are reported as the reduction in angiogenic stimulation (vessels counted) compared to untreated controls. A, bFGF (5 ng/ml); B, bFGF (5 ng/ml)+5 μl DMSO; C, bFGF (5 ng/ml)+5 μl DMSO containing 1 μg/ml sterculic acid; D, bFGF (5 ng/ml)+5 μl DMSO containing 10 μg/ml sterculic acid.
Fertilized chick embryos, 9-day old, were maintained in a 48 place table top egg incubator at 37° C. in a specific humidity of 60%. After swabbing the egg shell with 70% alcohol, a small window was cut through the egg shell close to the inner shell surface where the prominent blood vessels are located using a hobby grinding wheel (Dremel Emerson Electric Co., Racine, Wis.). A filter disc saturated with bFGF (5 ng/ml) was placed on the CAM. Sterculic acid dissolved in dimethyl sulfoxide (DMSO) at various concentrations was added to the disc daily over 3-day period of incubation. The controls received the same amount of DMSO. After 72 h the disc and surrounding CAM were excised, inverted and examined under a high power dissecting microscope. The result was reported as reduction in angiogenic stimulation (vessels counted) compared to untreated controls.

[4] = test system: HUVEC; test: Cell migration (chemotaxis) assay, Boyden chamber, VEGF as chemoattractant; format: cell-based
Method: Cell migration was assessed using the 48-well Boyden chamber and 8 μm pore size collagen-coated (10 μg/ml rat tail collagen; Collaborative Laboratories) polycarbonate filters (Osmonics, Inc). The bottom chamber wells received 29 μl of DMEM medium alone (baseline) or medium containing chemoattractant (VEGF). The top chambers received 45 μl of HUVEC cell suspension (1×10^6 cells/ml) prepared in DMEM+1% BSA with or without sterculic acid. After 5 h incubation at 37° C., the membrane was rinsed in PBS, fixed and stained Diff-Quick solutions. The filter was placed on a glass slide with the migrated cells facing down and cell on top were removed using Kimwipe. The testing was performed in 4 replicates and five fields were counted from each well. The data was plotted as mean migrated cells±SD. IC50 was calculated from the plotted data.

For CCCCCCCCC1=C(CCCCCCCC(=O)O)C1 [sterculic acid, 8-(2-octacyclopropen-1-yl)octanoic acid], the “effect on 7KCh-mediated mRNA induction (inflammatory response)” value ([1]; 1 μM fatty acid + 8 μM 7KCh, 24 hr, FIG. 13) was “complete inhibition”, the “effect of fatty acid alone on the mRNA expression of the cytokines” value ([1]; 1 μM fatty acid alone, no 7KCh, FIGS. 14, 15) was “no effect” and the “VEGF mRNA expression” value ([1]; 8 μM 7KCh alone or with 1 μM fatty acid, 24 hr, FIG. 13A) was “basal levels”. The “IL-6 mRNA expression” value ([1]; 8 μM 7KCh alone or with 1 μM fatty acid, 24 hr, FIG. 13B) was “basal levels”, the “GRP78 mRNA expression” value ([1]; 8 μM 7KCh alone or with 1 μM fatty acid, 24 hr, FIG. 13C) was “basal levels” and the “CHOP mRNA expression” value ([1]; 8 μM 7KCh alone or with 1 μM fatty acid, 24 hr, FIG. 13D) was “basal levels”. The “induction of VEGF mRNA” value ([1]; 8 μM 7KCh alone or with 1 μM fatty acid, FIG. 14A) was 2.5 fold, the “induction of IL-1β mRNA” value ([1]; 8 μM 7KCh alone or with 1 μM fatty acid, FIG. 14B) was 3.9 fold and the “induction of IL-6 mRNA” value ([1]; 8 μM 7KCh alone or with 1 μM fatty acid, FIG. 14C) was 5.1 fold. For the same compound, the “induction of IL-8 mRNA” value ([1]; 8 μM 7KCh alone or with 1 μM fatty acid, FIG. 14D) was 1.8 fold, the “induction of TNF-α mRNA” value ([1]; 8 μM 7KCh alone or with 1 μM fatty acid, FIG. 15A) was 1.5 fold and the “induction of TGF-β1 mRNA” value ([1]; 8 μM 7KCh alone or with 1 μM fatty acid, FIG. 15B) was 1 fold. The “induction of GRP78 mRNA” value ([1]; 8 μM 7KCh alone or with 1 μM fatty acid, FIG. 15C) was 1.3 fold, the “induction of CHOP mRNA” value ([1]; 8 μM 7KCh alone or with 1 μM fatty acid, FIG. 15D) was 4.1 fold and the “cell viability at 0.5 μM” value ([2]; 0.5 μM + 12 μM 7KCh, 24 hr) was “significantly increased cell viability”. The “morphological effects on the cells (images)” value ([2]; 1 μM + 12 μM 7KCh, 24 hr, FIG. 12C) was “effectively protect”, the “CONC. (μM): lowest concentration required to maintain full cell viability against 7KCh” value ([2]; 12 μM 7KCh for 24 hr, tested 0.1, 0.5, 1, 5 and 10 μM) was 1 µM and the “protective effect against 7KCh-mediated cell death” value ([2]; 12 μM 7KCh, 24 hr, 0.1-10 μM fatty acid) was “by far the most effective compound”. For the same compound, the “decrease in blood vessels induced by bFGF” value ([3]; 1 μg/ml sterculic acid in DMSO daily) was “Significant decrease”, the “decrease in blood vessels induced by bFGF” value ([3]; 10 μg/ml sterculic acid in DMSO daily) was “more than 3 fold” and the “value observed in the CAM assay” value ([3]; compared with the HUVEC IC50) was 10 µM. For the same compound, the “cell toxicity at migration-inhibiting concentration” value [4] was “without showing significant cell toxicity” and the “concentration that significantly inhibited VEGF-induced endothelial cell migration” value ([4]; 5 h) was “Less than 100 μM”.
